Reference: US20260306525A1, “COMBINATION THERAPY GLUCOCORTICOIDS AND GINSENOSIDE” (FYTAGORAS B.V., priority 2023, published 2026)

Columns and labels:
zebrafish larvae [1] = assay: whole-body glucose measurement of zebrafish larvae; conditions: for whole-body glucose level: Example 2, non-wounded; for whole-body glucose level / whole-body glucose level upon wounding: 5 dpf; for whole-body glucose level upon wounding: Example 2, wounded at 2 dpf; for whole body glucose level: 0-5 dpf, 10 μM beclomethasone, 50 μM Rg1 or combination
Description: In each experiment, three biological replicates were used for each treatment group, and the colorimetric assay was performed using technical duplicates.
Tail fin wounding were performed at 2 days post-fertilization (dpf). At 5 dpf, the larvae (15 per sample) were placed in egg water for 1 h and collected in an Eppendorf tube, washed in egg water (3 times for 10 min). Subsequently, 100 μL of ice-cold glucose buffer was added to each sample, and the larvae were homogenized using a BulletBlender® for 3 min at 8,000 rpm. The homogenates were then centrifuged at 4° C. for 8 min at 11,000 rpm and the supernatant was stored at −20° C. Whole-body glucose concentrations were determined using a Glucose Colorimetric Assay kit (Cayman Chemical, Ann Arbor, MI, USA), according to the manufacturer's instructions. In each experiment, three biological replicates were used for each treatment group, and the colorimetric assay was performed using technical duplicates.

il8 = assay: qPCR il8 expression in zebrafish larvae; type: in vivo, zebrafish (Danio rerio); conditions: Example 2, wounded larvae
Description: To determine mRNA levels of specific genes in zebrafish, 3 dpf larvae were used (wounded and non-wounded) and after 6 h of chemical treatments (2 h pre-wounding, 4 h post-wounding), as indicated. Per sample, groups of 15 larvae were collected in TRIzol reagent (Thermo Fisher Scientific, Waltham, MA, USA), and total RNA was isolated using the miRNeasy mini kit (Qiagen, Hilden, Germany). For similar experiments in Hela cells, cells were seeded in 6 well plates, and after 6 h of chemical treatment, the cells were removed from the wells using TRIzol reagent, and total RNA was isolated using the miRNeasy mini kit according to the manufacturer's instructions. The RNA samples were DNAse-treated utilizing the DNA-free™ DNA Removal Kit (Thermo Fisher Scientific). The cDNA synthesis was performed using the iScript cDNA synthesis kit (Bio-Rad Laboratories, Hercules, CA, USA) using 1 μg of RNA per sample. For the PCR reactions, 10 μM of forward and 10 μM of reverse primer, 12.5 μl of iQ SYBR Green Supermix (Bio-Rad), and 2 μl of cDNA were added to the qPCR reaction mixture. […] The reactions were performed on a MyiQ-single-color real-time PCR detection system (Bio-Rad Laboratories) with initial denaturation for 3 min at 95° C. and 40 cycles of 15 s at 95.5° C., 15 s at 60° C., and 30 s at 72° C. Cycle threshold values (Ct values, i.e. the cycle numbers at which a threshold value of the fluorescence intensity was reached) were determined for each sample. The gene expression level for each sample was normalized using the expression of ppial (peptidylprolyl isomerase Ab (cyclophilin A)) for zebrafish samples, 18S rRNA for human cells. The fold change per sample (compared to the respective control group) was calculated using the ΔΔCt method.

neutrophils = assay: zebrafish tail fin wounding assay, neutrophil migration to wounded site; type: in vivo, zebrafish (Danio rerio); conditions: for migration of neutrophils upon tail fin wounding: Example 2, PPT 50 μM, F1, Rh1, Rg1 100 μM, Bec positive control, 3 dpf; for reduction in neutrophil migration in presence of Gba2 inhibitor MZ31: MZ31 (10 μM) co-treatment; for migration of neutrophils towards the wounded site: 4 h after wounding
Description: Zebrafish (Danio rerio) were maintained and handled according to the guidelines from the Zebrafish Model Organism Database (http://zfin.org) and in compliance with the directives of the local animal welfare committee of Leiden University. Zebrafish were exposed to a 14 h light and 10 h dark cycle to maintain circadian rhythmicity. Fertilization was performed by natural spawning at the beginning of the light period. […] The following zebrafish lines were used in this study: the double transgenic line Tg(mpx:GFP^i114/mpeg1:mCherry^umsF001), in which neutrophils and macrophages are fluorescently labeled (green and red, respectively), and the Tg(9xGCRE-HSV.UI23:EGFP)^ia20 reporter line, in which the gene encoding enhanced green fluorescent protein (EGFP) is driven by a GRE-containing promoter.
For the tail fin wounding experiments, 20 larvae at 2 or 3 days post-fertilization (dpf) were utilized for each experimental group. For wounding, larvae were anesthetized in egg water containing 0.02% buffered aminobenzoic acid ethyl ester (tricaine; Sigma-Aldrich). Larvae were placed on Petri dishes coated with 2% agarose under a Leica M165C stereomicroscope (Leica Microsystems, Wetzlar, Germany), and the tails were partly amputated using a 1-mm sapphire blade (World Precision Instruments, Sarasota, FL, USA). For quantification of leukocyte migration, larvae were fixed overnight in 4% paraformaldehyde (PFA) at 4° C. The next day, fixed larvae were washed with Phosphate Buffered Saline (PBS) containing 0.1% Tween 20, and stored at 4° C. until imaging.
The macrophages were detected based on their red (mCherry) fluorescence, and neutrophils based on their green (EGFP) fluorescence. To quantify the number of macrophages and neutrophils recruited to the wounded area, the cells in a defined area of the tail were determined by blinded manual counting.
Zebrafish (Danio rerio) were maintained and handled according to the guidelines from the Zebrafish Model Organism Database (http://zfin.org) and in compliance with the directives of the local animal welfare committee of Leiden University. Zebrafish were exposed to a 14 h light and 10 h dark cycle to maintain circadian rhythmicity. Fertilization was performed by natural spawning at the beginning of the light period. […] The following zebrafish lines were used in this study: AB/TL wild type, the transgenic lines Tg(mpx:GFP^i114/mpeg1:mCherry^umsF001)[14, 15], and Tg(9xGCRE-HSV.UI23:EGFPia^20)[16], and the mutant lines grs357[20].
For the tail fin wounding experiments, 2- or 3-days post-fertilization (dpf) larvae were anesthetized in egg water containing 0.02% buffered aminobenzoic acid ethyl ester (tricaine; Sigma-Aldrich). Larvae were placed in Petri dishes coated with 2% agarose under a Leica M165C stereomicroscope (Leica Microsystems, Wetzlar, Germany), and the tails were partly amputated using a 1-mm sapphire blade (World Precision Instruments, Sarasota, FL, USA).
In experiments in which the leukocyte migration was used as a readout, larvae were subjected to treatment with chemicals as indicated, starting at 2 h before the amputation (pretreatment), and treatment was continued for 4 h after the tail fin amputation (20 larvae per group, unless indicated otherwise). In some experiments, a 24 h treatment with MZ31 (10 μM) was started at 2 dpf, and these treatments were continued during the pretreatment and treatment with the other chemicals. At 4 h after amputation, the larvae were fixed in 4% paraformaldehyde (PFA) overnight at 4° C. The next day, fixed larvae were washed with Phosphate Buffered Saline (PBS) containing 0.1% Tween 20 and stored at 4° C. until imaging. […] The macrophages were detected based on red (mCherry) fluorescence and neutrophils on their green (EGFP) fluorescence. To quantify the number of macrophages and neutrophils recruited to the wounded area, the cells in a defined area of the tail were determined by blinded manual counting. […]

zebrafish larvae [2] = assay: tail fin regeneration assay; conditions: for tissue regeneration of tail fin: Example 2, amputation at 2 dpf, read at 5 dpf; for tissue regeneration upon wounding: Example 2, wounded at 2 dpf (second statement on FIG. 8F); for regeneration of amputated tail fin (length of regenerated tissue at 5 dpf): 0-5 dpf, 10 μM beclomethasone or dexamethasone, 50 μM Rg1 or combinations, amputation at 2 dpf
Description: In experiments in which the length of regenerated tail fin tissue after wounding, or the larval body length, was used as a readout, chemical treatments were started at 2 hours post-fertilization (hpf) and continued until 5 dpf, as indicated (15 larvae per treatment group). During this period, solutions were refreshed daily. For the regeneration experiments, tail fins were amputated at 2 dpf. At 5 dpf, larvae were fixed overnight in 4% PFA at 4° C. For determination of the larval length and the regeneration of the tail fins, larvae were imaged using a LeicaMZ16FA fluorescence stereomicroscope supported by LAS 3.7 software. The length of the entire larva or the newly grown tissue was measured using ImageJ software. The newly grown tissue can be visually distinguished from the old tissue, enabling precise measurement of its length.

Row | Structure (SMILES) | whole-body glucose level (zebrafish larvae [1]) | whole-body glucose level upon wounding (zebrafish larvae [1]) | il8 expression (il8) | migration of neutrophils upon tail fin wounding (neutrophils) | reduction in neutrophil migration in presence of Gba2 inhibitor MZ31 (neutrophils) | tissue regeneration of tail fin (zebrafish larvae [2]) | tissue regeneration upon wounding (zebrafish larvae [2]) | tissue regeneration effect in presence of Gba2 inhibitor MZ31 (zebrafish larvae [2]; Example 2, wounded, with MZ31) | whole body glucose level (zebrafish larvae [1]) | migration of neutrophils towards the wounded site (neutrophils; Rg1 40 μM and lower) | regeneration of amputated tail fin (length of regenerated tissue at 5 dpf) (zebrafish larvae [2]) | dose-response of whole-body glucose level (zebrafish larvae [1]; beclomethasone 0.1, 1, 5, 10, 15 μM without or with 50 μM Rg1) | migration of neutrophils towards the wounded site (neutrophils; beclomethasone 20 μM and 40 μM) | migration of neutrophils towards the wounded site (neutrophils; beclomethasone lower than 10 μM)
1 | CC(C)=CCC[C@](C)(O[C@@H]1O[C@H](CO)[C@@H](O)[C@H](O)[C@H]1O)[C@H]1CC[C@]2(C)[C@@H]1[C@H](O)C[C@@H]1[C@@]3(C)CC[C@H](O)C(C)(C)[C@@H]3[C@@H](O)C[C@]12C [F1] | did not show any side effects | did not affect the glucose level | Only a minor effect | inhibited the migration of neutrophils | did not affect the reduction in neutrophil migration | did not show any side effects | minor effect on the cortisol level and on tissue regeneration | These latter effects were Gba2-dependent | – | – | – | – | – | –
2 | CC(C)=CCC[C@](C)(O)[C@H]1CC[C@]2(C)[C@@H]1[C@H](O)C[C@@H]1[C@@]3(C)CC[C@H](O)C(C)(C)[C@@H]3[C@@H](O)C[C@]12C [PPT, Protopanaxatriol] | did not affect the glucose level | – | Only a minor effect | inhibited the migration of neutrophils | did not affect the reduction in neutrophil migration | considerably inhibited the regeneration of the tail fin after wounding | – | – | – | – | – | – | – | –
3 | CC(C)=CCC[C@](C)(O[C@@H]1O[C@H](CO)[C@@H](O)[C@H](O)[C@H]1O)[C@H]1CC[C@]2(C)[C@@H]1[C@H](O)C[C@@H]1[C@@]3(C)CC[C@H](O)C(C)(C)[C@@H]3[C@@H](O[C@@H]3O[C@H](CO)[C@@H](O)[C@H](O)[C@H]3O)C[C@]12C [Rg1, (3β,6α, 12β)-3,12-Dihydroxydammar-24-ene-6,20-diyl bis-β-D-glucopyranoside] | did not show any side effects | still not show any effect on the glucose or cortisol level or on tissue regeneration | no effect | inhibited the migration of neutrophils | this inhibitor abolished the effect of the polyglycosylated ginsenoside Rg1 | did not show any side effects | still not show any effect on the glucose or cortisol level or on tissue regeneration | – | did not affect the whole-body glucose and cortisol concentrations | did not alter the neutrophil migration | did not affect the regenerative process | – | – | –
4 | CC(C)=CCC[C@](C)(O)[C@H]1CC[C@]2(C)[C@@H]1[C@H](O)C[C@@H]1[C@@]3(C)CC[C@H](O)C(C)(C)[C@@H]3[C@@H](O[C@@H]3O[C@H](CO)[C@@H](O)[C@H](O)[C@H]3O)C[C@]12C [Rh1] | did not show any side effects | still not show any effect on the glucose or cortisol level or on tissue regeneration | no effect | inhibited the migration of neutrophils | did not affect the reduction in neutrophil migration | did not show any side effects | still not show any effect on the glucose or cortisol level or on tissue regeneration | – | – | – | – | – | – | –
5 | C[C@H]1C[C@H]2[C@@H]3CCC4=CC(=O)C=C[C@]4(C)[C@@]3(Cl)[C@@H](O)C[C@]2(C)[C@@]1(O)C(=O)CO [beclomethasone, reference compound] | increase in the glucose level | – | – | inhibited the migration of neutrophils | – | inhibited the tissue regeneration | – | – | elevated whole body glucose | – | inhibited the regeneration | dose-dependent effect | did significantly reduce the neutrophil migration | did not affect the migration of neutrophils towards the wounded site
